Experimental data as given in ChEMBL document CHEMBL1137205, “Rational approaches to discovery of orally active and brain-penetrable quinazolinone inhibitors of poly(ADP-ribose)polymerase” (J Med Chem, 2004).

Tests used:
[1] = molecular target: Poly [ADP-ribose] polymerase 1 (Homo sapiens, UniProt P09874); assay: In vitro inhibitory concentration against human recombinant Poly (ADP-ribose) polymerase 1
[2] = Concentration in plasma was measured at 2 hrs in mice following po administration of 32 mg/kg; format: ADME, organism-based; set-up: dose 32 mg/kg, route oral; details: mouse
[3] = Concentration in brain tissue was measured at 2 hrs in mice following po administration of 32 mg/kg; format: ADME, organism-based; set-up: dose 32 mg/kg, route oral; details: mouse
[4] = Concentration in plasma was measured at 0.5 hrs in mice following po administration of 32 mg/kg; format: ADME, organism-based; set-up: dose 32 mg/kg, route oral; details: mouse
[5] = Concentration in brain tissue was measured at 0.5 hrs in mice following po administration of 32 mg/kg; format: ADME, organism-based; set-up: dose 32 mg/kg, route oral; details: mouse
[6] = Concentration in plasma was measured at 0.5 hrs in mice following ip administration of 32 mg/kg; format: ADME, organism-based; set-up: dose 32 mg/kg, route intraperitoneal; details: mouse
[7] = Concentration in brain tissue was measured at 0.5 hrs in mice following ip administration of 32 mg/kg; format: ADME, organism-based; set-up: dose 32 mg/kg, route intraperitoneal; details: mouse
[8] = Ratio of brain tissue concentration to that of plasma concentration; format: ADME; details: mouse; for Kp: brain / plasma
[9] = Cmax value in mouse after po administration of 10 mg/kg; format: ADME, organism-based; set-up: dose 10 mg/kg, route oral; details: in vivo
[10] = Half-life in rat after iv administration of 10 mg/kg; format: ADME, organism-based; set-up: dose 10 mg/kg, route intravenous; details: in vivo
[11] = Bioavailability in rat after iv administration of 10 mg/kg; format: ADME, organism-based; details: in vivo, read-out: Bioavailabiility
[12] = Cmax value in dog after po administration of 1.0 mg/kg; format: ADME, organism-based, Canis lupus familiaris; set-up: dose 1 mg/kg, route oral; details: in vivo
[13] = Clearance in human liver microsomes when incubated at 37 degree Celsius in the presence of NADPH-generating system
[14] = AUC value in dog after po administration of 1.0 mg/kg; format: ADME, organism-based, Canis lupus familiaris, Plasma; set-up: dose 1 mg/kg, route oral; details: in vivo
[15] = Clearance in dog liver microsomes when incubated at 37 degree Celsius in the presence of NADPH-generating system
[16] = AUC value in rat after po administration of 10 mg/kg; format: ADME, organism-based, Plasma; set-up: dose 10 mg/kg, route oral; details: in vivo
[17] = Cmax value in rat after po administration of 10 mg/kg; format: ADME, organism-based; set-up: dose 10 mg/kg, route oral; details: in vivo
[18] = Half-life in dog after iv administration of 1.0 mg/kg; format: ADME, organism-based, Canis lupus familiaris; set-up: dose 1 mg/kg, route intravenous; details: in vivo
[19] = Bioavailability in dog after iv administration of 1.0 mg/kg; format: ADME, organism-based, Canis lupus familiaris; details: in vivo, read-out: Bioavailabiility
[20] = Clearance in mouse liver microsomes when incubated at 37 degree Celsius in the presence of NADPH-generating system
[21] = Clearance in rat liver microsomes when incubated at 37 degree Celsius in the presence of NADPH-generating system
[22] = Clearance of compound in dog after iv administration of 1.0 mg/kg; format: ADME, organism-based, Canis lupus familiaris; set-up: dose 1 mg/kg, route intravenous; details: in vivo
[23] = Clearance of compound in rat after iv administration of 10 mg/kg; format: ADME, organism-based; set-up: dose 10 mg/kg, route intravenous; details: in vivo

Sequence of Poly [ADP-ribose] polymerase 1 (P09874 whole entry): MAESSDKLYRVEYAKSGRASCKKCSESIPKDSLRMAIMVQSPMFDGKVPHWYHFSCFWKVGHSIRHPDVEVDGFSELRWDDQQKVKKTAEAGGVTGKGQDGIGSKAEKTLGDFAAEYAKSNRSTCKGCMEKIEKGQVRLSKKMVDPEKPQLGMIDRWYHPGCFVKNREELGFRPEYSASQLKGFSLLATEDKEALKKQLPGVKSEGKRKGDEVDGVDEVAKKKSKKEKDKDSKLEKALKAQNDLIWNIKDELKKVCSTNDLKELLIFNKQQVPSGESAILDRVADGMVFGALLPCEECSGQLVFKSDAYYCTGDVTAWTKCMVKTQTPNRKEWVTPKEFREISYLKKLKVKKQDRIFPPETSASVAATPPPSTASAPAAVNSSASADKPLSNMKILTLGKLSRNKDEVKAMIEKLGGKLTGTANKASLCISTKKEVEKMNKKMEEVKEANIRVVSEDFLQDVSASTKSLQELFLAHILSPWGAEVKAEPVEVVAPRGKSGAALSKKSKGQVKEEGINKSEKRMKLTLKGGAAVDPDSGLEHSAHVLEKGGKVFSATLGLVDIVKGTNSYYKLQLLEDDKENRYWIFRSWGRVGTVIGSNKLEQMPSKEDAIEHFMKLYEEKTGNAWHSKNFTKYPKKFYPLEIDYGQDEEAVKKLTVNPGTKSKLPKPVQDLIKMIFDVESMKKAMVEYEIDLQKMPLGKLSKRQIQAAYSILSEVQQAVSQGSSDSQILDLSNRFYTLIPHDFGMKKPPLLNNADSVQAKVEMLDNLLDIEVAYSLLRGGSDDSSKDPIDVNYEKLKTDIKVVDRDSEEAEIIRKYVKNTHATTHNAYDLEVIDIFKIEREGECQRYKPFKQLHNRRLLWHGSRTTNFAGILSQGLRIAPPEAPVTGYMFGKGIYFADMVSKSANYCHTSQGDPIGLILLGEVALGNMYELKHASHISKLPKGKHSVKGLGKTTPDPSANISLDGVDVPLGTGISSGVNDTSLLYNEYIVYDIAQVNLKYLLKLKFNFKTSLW

SMILES | IC50 [1] | concentration at 2 h [2] | concentration at 2 h [3] | concentration at 0.5 h [4] | concentration at 0.5 h [5] | further results
Oc1nc(CCCN2CC=C(c3ccccc3F)CC2)nc2ccccc12 | 37 nM | – | – | – | – | –
O=c1[nH]c(CCCN2CC=C(c3cccc(F)c3)CC2)nc2ccccc12 | 23 nM | – | – | – | – | –
N#Cc1ccc(C2=CCN(CCCc3nc(O)c4ccccc4n3)CC2)cc1 | 6 nM | 5200 ng/mL | 540 ng/g | 20000 ng/mL | 4500 ng/g | –
Oc1nc(CCCN2CC=C(c3ccccc3)CC2)nc2ccc(Cl)cc12 | 27 nM | 15500 ng/mL | 14200 ng/g | 16200 ng/mL | 18600 ng/g | –
O=c1[nH]c(CCCN2CC=C(c3ccccc3)CC2)nc2c(Cl)cc(Cl)cc12 | 39 nM | – | – | – | – | –
Oc1nc(CCCN2CCC3=C(CCc4ccccc43)C2)nc2ccccc12 | 12 nM | – | – | – | – | –
Oc1nc(CCCN2CC=C(c3ccccc3)CC2)nc2cc(Cl)ccc12 | 250 nM | 510 ng/mL | 2660 ng/g | 80 ng/mL | 6120 ng/g | –
O=c1[nH]c(CCCN2CC=C(c3ccccc3)CC2)nc2cccc(Cl)c12 | 65 nM | 2170 ng/mL | 2820 ng/g | 4180 ng/mL | 4600 ng/g | concentration at 0.5 h [6]: 1200 ng/mL; concentration at 0.5 h [7]: 7000 ng/g; Kp [8]: 5.8
Cc1ccc(C2=CCN(CCCc3nc(O)c4ccccc4n3)CC2)cc1 | 17 nM | 840 ng/mL | 2340 ng/g | 5400 ng/mL | 5310 ng/g | –
CCc1cccc2c(O)nc(CCCN3CC=C(c4ccccc4)CC3)nc12 | 66 nM | – | – | – | – | –
COc1ccccc1C1=CCN(CCCc2nc(O)c3ccccc3n2)CC1 | 170 nM | – | – | – | – | –
Oc1nc(CCCN2CC=C(c3ccc(-[n+]4ccccc4)cc3)CC2)nc2ccccc12 | 12 nM | 620 ng/mL | 300 ng/g | 14100 ng/mL | 2760 ng/g | –
O=c1[nH]c(CCCC2CC=C(c3ccccc3)CC2)nc2ccccc12 (stereo not given) | > 1000 nM | – | – | – | – | –
Cc1cccc2c(=O)[nH]c(CCCN3CC=C(c4ccccc4)CC3)nc12 | 14 nM | 400 ng/mL | 730 ng/g | 940 ng/mL | 2540 ng/g | –
Oc1nc(CCCN2CCN(c3ccccc3)CC2)nc2ccccc12 | – | 530 ng/mL | 300 ng/g | 2270 ng/mL | 2850 ng/g | –
O=c1[nH]c(CCCN2CCC(c3ccccc3)CC2)nc2ccccc12 | 46 nM | – | 100 ng/g | 250 ng/mL | 370 ng/g | –
O=c1[nH]c(CCCN2CC=C(c3ccc(F)cc3)CC2)nc2ccccc12 | 8.9 nM | 3480 ng/mL | 1160 ng/g | 6830 ng/mL | 3540 ng/g | –
O=c1[nH]c(CCCN2CC=C(c3ccc(Cl)cc3)CC2)nc2ccccc12 | 23 nM | 2780 ng/mL | 9410 ng/g | 12100 ng/mL | 23900 ng/g | –
O=c1[nH]c(CCCN2CC=C(c3ccccc3)CC2)nc2c(Cl)cccc12 | 26 nM | 1200 ng/mL | 8430 ng/g | 1280 ng/mL | 7990 ng/g | –
O=c1[nH]c(CCCN2CC=C(c3ccc(F)cc3)CC2)nc2c(Cl)cccc12 | 13 nM | 500 ng/mL | 2100 ng/g | 1000 ng/mL | 5600 ng/g | Cmax [9]: 300 ng/mL; half-life [10]: 1.4 h; bioavailability [11]: 20%; Cmax [12]: 280 ng/mL; CLint scaled [13]: 156 mL/min/kg; AUC [14]: 3.16 µg/h/mL; CLint scaled [15]: 141 mL/min/kg; AUC [16]: 2.52 µg/h/mL; Cmax [17]: 1330 ng/mL; half-life [18]: 6 h; bioavailability [19]: 70%; CLint scaled [20]: 2250 mL/min/kg; CLint scaled [21]: 1240 mL/min/kg; clearance [22]: 4.8 mL/min/kg; clearance [23]: 13.5 mL/min/kg; Kp [8]: 5.6; Ratio ([8]; plasma): 4.2
COc1cccc2c(=O)[nH]c(CCCN3CC=C(c4ccccc4)CC3)nc12 | 26 nM | – | – | 240 ng/mL | 1150 ng/g | –
O=c1[nH]c(CCCN2CC=C(c3ccc(C(F)(F)F)cc3)CC2)nc2ccccc12 | 25 nM | 3270 ng/mL | 19500 ng/g | 6800 ng/mL | 23400 ng/g | –
O=c1[nH]c(=O)n(CCCCN2CC=C(c3ccccc3)CC2)c2cccc(F)c12 | – | – | – | – | – | concentration at 0.5 h [6]: 700 ng/mL; concentration at 0.5 h [7]: 600 ng/g; Kp [8]: 0.86
Oc1nc(CCCN2CC=C(c3ccc(-c4ccccc4)cc3)CC2)nc2ccccc12 | 34 nM | – | – | – | – | –
Cc1nc2cccc(Cl)c2c(=O)[nH]1 | – | – | – | – | – | concentration at 0.5 h [6]: 6700 ng/mL; concentration at 0.5 h [7]: 5500 ng/g; Kp [8]: 0.82
O=c1[nH]c(CCCN2CC=C(c3ccc(O)cc3)CC2)nc2ccccc12 | 12 nM | – | – | – | – | –
Oc1nc(CCCN2CCc3c([nH]c4ccccc34)C2)nc2ccccc12 | 74 nM | 9510 ng/mL | 150 ng/g | 77200 ng/mL | 580 ng/g | –
COc1ccc(C2=CCN(CCCc3nc(O)c4ccccc4n3)CC2)cc1 | 8.3 nM | 1670 ng/mL | 3750 ng/g | 6050 ng/mL | 5610 ng/g | –
Oc1nc(CCCN2CC=C(c3ccccc3)CC2)nc2cccc(F)c12 | – | 140 ng/mL | 220 ng/g | 370 ng/mL | 1620 ng/g | –
O=c1[nH]c(CCCN2CC=C(c3ccccc3)CC2)nc2ccccc12 | 16 nM | 150 ng/mL | 370 ng/g | 680 ng/mL | 1900 ng/g | –
